In patent US5962640A, “Methods for preparing novel dipeptide compounds or pharmacuetically acceptable salts thereof” (Japan Energy Corporation, priority 1995, dated 1999):
≈ marks a conversion by molar mass, not a printed value.

Experiments:
Recombinant HIV protease = molecular target: T1, Recombinant HIV protease (Human immunodeficiency virus type 1 group M subtype B, UniProt P04585); assay: HIV protease inhibitory activity (cleavage of synthetic hepta-peptide, HPLC); type: biochemical; conditions: for inhibition at 0.05 µM / HIV protease inhibitory activity (%): 37° C., 60 min; for inhibition at 5 µM: read-out: HIV protease inhibitory activity (%)
T1 construct: Recombinant HIV protease
Experimental: Recombinant HIV protease (Biochemistry, 250 (9), 264 (1990)) and synthetic hepta-peptide (H-Ser-Gln-Asn-Tyr-Pro-Ile-Val-OH/trifluoroacetic acid salt) were used for assay of protease activity. Peptide fragment H-Pro-Ile-Val-OH formed by cleavage between -Tyr . . . Pro of said substrate after a reaction in the presence of various concentration of tested compound at 37° C. for 60 min. was determined by reversed phase HPLC and the inhibitory rate was calculated (referred to Japanese laid-open unexamined patent, No. 170722/1993).
The concentration of tested compound represents the final concentration thereof of the reaction mixture.

HTLV-IIIB virus = assay: Anti-HIV activity: protection of HTLV-IIIB infected MT-4 cells, MTT method; type: cell-based; conditions: MT-4 cells infected with HTLV-IIIB, 5 day culture; for EC50: Human immunodeficiency virus 1, MT4, 120 h
Experimental: The anti-HIV activity of the dipeptide compound of the present invention was evaluated as described below. That is, the inhibitory action of the compound on formation of HIV virus particles which infects T lymphocyte was evaluated by potency to prevent death of T lymphocyte accompanied by said virus infection.
(§1) According to a test method which was already reported in publications (H.Nakashima et al., Antimicrob. Agents Chemother.36, 1249-1255 (1992), etc.,), anti-HIV activity was evaluated, by using MT-4 cell line and HTLV-IIIB virus, MT-4 cells (2.5×10^4 well, MOI:001) infected with said HTLV-IIIB virus just before the addition were into 96-well microtiter plate wherein each well contained various concentration of tested compound. At the same time, in order to investigate cytotoxicity of tested compounds to MT-4 cell line, non-infected MT-4 cell line was cultured in the presence of various kinds of tested compound. After 5 day culture at 37° C. in a CO2 incubator, the number of vial cells was counted by MTT method.
Virus whose infectious value was 3.8×10^4 TCID 50/ml was used.

MT-4 cell line = assay: Cytotoxicity to non-infected MT-4 cell line, MTT method; type: cell-based; conditions: non-infected MT-4 cells, 5 day culture
Experimental: as §1, with “method. […]” for “method.”

[1] = Pharmacokinetics in rats, intravenous or intraduodenal administration, plasma concentration; type: in vivo
Experimental: Metabolic characteristics of the dipeptide compounds of the present invention was evaluated using rats. Tested compounds dissolved in vehicle was administered intraduodenally or intravenously. After administration, blood was taken and the concentration of residual tested compound in plasma was analyzed. The dosage of the tested compound was described in table 3.

SMILES | inhibition at 0.05 µM (Recombinant HIV protease; concentration 50 nM (final)) | inhibition at 5 µM (Recombinant HIV protease) | EC50 (HTLV-IIIB virus) | Cytotoxicity CC50 (MT-4 cell line) | HIV protease inhibitory activity (%) (Recombinant HIV protease; concentration 50 nM (final)) | HIV protease inhibitory activity (%) (Recombinant HIV protease; concentration 5 μM (final)) | Anti-HIV activity EC50 (HTLV-IIIB virus) | AUC ([1]; i.d., 20.0 mg/kg) | AUC ([1]; i.v., 10.0 mg/kg) | AUC ([1]; i.d., 10.0 mg/kg) | MRT ([1]; i.v., 10.0 mg/kg)
CCc1c(O)cccc1C(=O)N[C@@H](Cc1ccccc1)[C@H](O)C(=O)N1CSC[C@H]1C(=O)NCc1ccccc1C [Compound of example 35, (R)-N-(2-methylbenzyl)-3-[(2S,3S)-3-(2-ethyl-3-hydroxybenzoyl)amino-2-hydroxy-4-phenylbutanoyl]-1,3-thiazolidine-4-carboxamide] | 48.8% | 98.1% | 4.15 µg/mL (≈ 7.39 µM) | 90.9 µg/mL |  |  |  |  |  |  | 
Cc1c(O)cccc1C(=O)N[C@@H](Cc1ccccc1)[C@H](O)C(=O)N1CCC[C@H]1C(=O)NC(C)(C)C [Compound of example 24, N-tert-butyl-1-[(2S,3S)-2-hydroxy-3-N-[3-hydroxy-2-methylbenzoyl]amino-4-phenylbutanoyl]-L-prolinamide] |  |  |  | 231 µg/mL | 17.6% | 94.2% | 1.97 µg/mL |  |  |  | 
Cc1c(O)cccc1C(=O)N[C@@H](Cc1ccccc1)[C@H](O)C(=O)N1CSC(C)(C)[C@H]1C(=O)NC(C)(C)C [Compound of example 22, (R)-N-tert-butyl-3-[(2S,3S)-2-hydroxy-3-[3-hydroxy-2-methylbenzoy 1]amino-4-phenylbutanoyl]-5,5-dimethyl-1,3-thiazolidine-4-carboxamide] |  |  |  | 156 µg/mL | 87.6% | 99.0% | 0.15 µg/mL | 106 µg/mL/min | 111 µg/mL/min |  | 
Cc1ccccc1CNC(=O)[C@@H]1CSCN1C(=O)[C@@H](O)[C@H](Cc1ccccc1)NC(=O)c1cccc(O)c1C [Compound of example 34, (R)-N-(2-methylbenzyl)-3-[(2S,3S)-3-(3-hydroxy-2-methylbenzoyl)amino-2-hydroxy-4-phenylbutanoyl]-1,3-thiazolidine-4-carboxamide] | 69.8% | 96.7% | 5.35 µg/mL (≈ 9.77 µM) | 24.5 µg/mL |  |  |  |  | 124 µg/mL/min | 40 µg/mL/min | 
Cc1c(O)cccc1C(=O)N[C@@H](Cc1ccccc1)[C@H](O)C(=O)N1CO[C@H](C)[C@H]1C(=O)NC(C)(C)C [Compound of example 30, (4S,5R)-N-tert-butyl-3-[(2S,3S)-2-hydroxy-3-(2-methyl-3-hydroxybenzoyl)amino-4-phenylbutanoyl]-5-methyl-1,3-oxazolidine-4-carboxamide] | 21.5% | 96.9% | 1.4 µg/mL (≈ 2.81 µM) | 191 µg/mL |  |  |  |  |  |  | 
CCc1c(O)cccc1C(=O)N[C@@H](Cc1ccccc1)[C@H](O)C(=O)N1CSC(C)(C)[C@H]1C(=O)NC(C)(C)C [Compound of example 36, (R)-N-tert-butyl-3-[(2S,3S)-3-(2-ethyl-3-hydroxybenzoyl)amino-2-hydroxy-4-phenylbutanoyl]-5,5-dimethyl-1,3-thiazolidine-4-carboxamide] | 83.5% | > 99% | 0.54 µg/mL (≈ 0.997 µM) | 103 µg/mL |  |  |  |  | 174 µg/mL/min | 64 µg/mL/min | 
Cc1c(O)cccc1C(=O)N[C@@H](Cc1ccccc1)[C@H](O)C(=O)N1CSC[C@H]1C(=O)NC(C)(C)C [Compound of example 21, (R)-N-tert-butyl-3-[(2S,3S)-2-hydroxy-3-[3-hydroxy-2-methylbenzoy 1]amino-4-phenylbutanoyl]-1,3-thiazolidine-4-carboxamide] |  |  |  | 184 µg/mL |  |  | 0.70 µg/mL | 101 µg/mL/min | 111 µg/mL/min |  | 
CCCCNC(=O)[C@@H]1CSCN1C(=O)[C@@H](O)[C@H](Cc1ccccc1)NC(=O)c1cccc(O)c1C [Compound of example 39, (R)-N-n-butyl-3-[(2S,3S)-3-(3-hydroxy-2-methylbenzoyl)amino-2-hydroxy-4-phenylbutanoyl]-1,3-thiazolidine-4-carboxamide] | 13.4% | 92% |  |  |  |  |  |  |  |  | 
Cc1ccccc1C(=O)N[C@@H](Cc1ccccc1)[C@H](O)C(=O)N1CSC[C@H]1C(=O)NC(C)(C)C [Compound of example 2, (R)-N-tert-butyl-3-[(2S,3S)-2-hydroxy-3-[2-methylbenzoyl]amino-4-phenylbutanoyl]-1,3-thiazolidine-4-carboxamide] |  | 74.9% |  |  |  |  |  |  |  |  | 
CSC[C@H](NC(=O)COc1cccc2cnccc12)C(=O)N[C@@H](Cc1ccccc1)[C@H](O)C(=O)N1CSC[C@H]1C(=O)NC(C)(C)C [KNI-272, (R)-3-[(2S,3S)-3-(N-(isoquinoline-5-yloxy)acetyl-methylthio-L-alanyl)amino-2-hydroxy-4-phenylbutanoyl]1,3-thiazolidine-4-N'-t-butylcarboxamide, reference compound] |  |  |  | 115 µg/mL |  |  | 0.21 µg/mL |  | 224 µg/mL/min | 98 µg/mL/min | 
Cc1cccc(C)c1CNC(=O)[C@@H]1CSCN1C(=O)[C@@H](O)[C@H](Cc1ccccc1)NC(=O)c1cccc(O)c1C [Compound of example 44, (R)-N-(2,6-dimethylbenzyl)-3-[(2S,3S)-3-(3-hydroxy-2-methylbenzoyl)amino-2-hydroxy-4-phenylbutanoyl]-1,3-thiazolidine-4-carboxamide] | 75.2% | 97.9% |  |  |  |  |  |  |  |  | 
CCc1c(O)cccc1C(=O)N[C@@H](Cc1ccccc1)[C@H](O)C(=O)N1CSC(C)(C)[C@H]1C(=O)NCc1ccccc1C [Compound of example 38, (R)-N-(2-methylbenzyl)-3-[(2S,3S)-3-(2-ethyl-3-hydroxybenzoyl)amino-2-hydroxy-4-phenylbutanoyl]-5,5-dimethyl-1,3-thiazolidine-4-carboxamide] | 97.3% | > 99% | 0.18 µg/mL (≈ 0.305 µM) | 19.5 µg/mL |  |  |  |  |  |  | 
Cc1c(O)cccc1C(=O)N[C@@H](Cc1ccccc1)[C@H](O)C(=O)N1CS(=O)(=O)C[C@H]1C(=O)NC(C)(C)C [Compound of example 28, (R)-N-tert-butyl-3-[(2S,3S)-2-hydroxy-3-(2-methyl-3-hydroxybenzoyl)amino-4-phenylbutanoyl]-1,3-thiazolidine-1,1-dioxide-4-carboxamide] |  |  |  | 146 µg/mL | 23.8% | 96.1% | 1.80 µg/mL |  |  |  | 
Cc1ccccc1CNC(=O)[C@H]1N(C(=O)[C@@H](O)[C@H](Cc2ccccc2)NC(=O)c2cccc(O)c2C)CSC1(C)C [Compound of example 37, (R)-N-(2-methylbenzyl)-3-[(2S,3S)-3-(3-hydroxy-2-methylbenzoyl)amino-2-hydroxy-4-phenylbutanoyl]-5,5-dimethyl-1,3-thiazolidine-4-carboxamide] | 95.8% | > 99% |  |  |  |  |  |  | 131 µg/mL/min | 55 µg/mL/min | 
CCc1c(O)cccc1C(=O)N[C@@H](Cc1ccccc1)[C@H](O)C(=O)N1CSC[C@H]1C(=O)NC(C)(C)C [Compound of example 31, (R)-N-tert-butyl-3-[(2S,3S)-2-hydroxy-3-(2-ethyl-3-hydroxybenzoyl)amino-4-phenylbutanoyl]-1,3-thiazolidine-4-carboxamide] | 45.6% | 97.5% | 1.46 µg/mL (≈ 2.84 µM) | 168 µg/mL |  |  |  |  | 276 µg/mL/min | 99 µg/mL/min | 1.6 h
Cc1c(N)cc(N)cc1C(=O)N[C@@H](Cc1ccccc1)[C@H](O)C(=O)N1CSC[C@H]1C(=O)NC(C)(C)C [Compound of example 33, (R)-N-tert-butyl-3-[(2S,3S)-2-hydroxy-3-(3,5-diamino-2-methylbenzoyl)amino-4-phenylbutanoyl]-1,3-thiazolidine-4-carboxamide] |  | 85.2% |  |  |  |  |  |  |  |  | 
